Data taken from US20230346792A1, “COMPOSITIONS AND METHODS FOR TREATING LUNG INFLAMMATION” (Hoth Therapeutics, Inc., priority 2020, published 2023).

Columns and labels:
[1] = target: T1, Neurokinin-1 receptor (Homo sapiens, UniProt P25103); conditions: lung cancer; cited from earlier work
T1 construct: host or cells: treated subjects (endogenous receptor)

[2] = system: Covid-19 patients; assay: Randomized double-blind placebo-controlled clinical study of aprepitant injectable emulsion in Covid-19 positive patients; assay type: in vivo, human; conditions: aprepitant injectable emulsion (e.g., Cinvanti) daily (QD), 14 days, comparator saline placebo, including severe to critical patients
Excerpt: One group of patients receives saline placebo daily for a desirable period of time (e.g., 14 days) with normal management and care, and the other group of patients receives aprepitant injectable emulsion (e.g., Cinvanti®) daily (QD) during the same period of time (e.g., 14 days).

[3] = system: nociception induced by capsaicin (TRPV1) or AITC (TRPA1); conditions: capsaicin (via TRPV1) or AITC (via TRPA1), rat peritoneum; cited from earlier work
[4] = system: NSCLC squamous cell carcinoma; conditions: one patient with history of COPD and NSCLC squamous cell carcinoma; aprepitant combined with radiotherapy; cited from earlier work
[5] = target: T2, NK1R (Rattus norvegicus, UniProt P14600); conditions: asthma model; cited from earlier work
T2 construct: host or cells: living animal of an asthma model (endogenous receptor)

[6] = in vivo; cited from earlier work

T2 sequence (P14600 whole entry): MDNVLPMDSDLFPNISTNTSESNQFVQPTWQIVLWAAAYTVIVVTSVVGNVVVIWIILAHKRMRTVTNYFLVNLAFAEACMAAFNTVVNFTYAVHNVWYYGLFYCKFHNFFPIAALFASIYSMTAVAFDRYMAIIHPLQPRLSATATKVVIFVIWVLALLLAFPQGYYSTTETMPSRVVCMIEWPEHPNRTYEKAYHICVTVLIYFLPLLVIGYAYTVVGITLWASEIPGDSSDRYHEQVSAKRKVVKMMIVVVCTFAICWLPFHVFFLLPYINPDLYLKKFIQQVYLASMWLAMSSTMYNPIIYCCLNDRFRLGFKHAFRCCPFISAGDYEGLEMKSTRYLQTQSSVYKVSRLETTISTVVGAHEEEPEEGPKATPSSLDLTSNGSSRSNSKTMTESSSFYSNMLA
T1 sequence (P25103 whole entry): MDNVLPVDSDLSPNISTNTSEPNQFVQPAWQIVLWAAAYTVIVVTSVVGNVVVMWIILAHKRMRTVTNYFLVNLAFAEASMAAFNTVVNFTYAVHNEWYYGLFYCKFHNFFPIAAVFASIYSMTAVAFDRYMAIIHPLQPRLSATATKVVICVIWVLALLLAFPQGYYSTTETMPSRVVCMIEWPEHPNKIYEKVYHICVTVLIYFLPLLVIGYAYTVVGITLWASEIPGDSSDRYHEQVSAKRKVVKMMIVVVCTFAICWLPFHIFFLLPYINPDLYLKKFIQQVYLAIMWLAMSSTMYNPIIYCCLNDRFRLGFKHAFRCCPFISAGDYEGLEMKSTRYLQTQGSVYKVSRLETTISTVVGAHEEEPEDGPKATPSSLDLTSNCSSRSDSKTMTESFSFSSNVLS

Row | SMILES | cough frequency [1] | effectiveness in treating Covid-19 patients versus placebo [2] | nociception induced by capsaicin or AITC [3] | treatment outcome of lung cancer patient [4] | lung inflammation and inflammatory cytokines [5] | adverse effects of chronic treatment [6]
1 | C[C@@H](O[C@H]1OCCN(Cc2nc(=O)[nH][nH]2)[C@H]1c1ccc(F)cc1)c1cc(C(F)(F)F)cc(C(F)(F)F)c1 [aprepitant] | reduction in cough frequency | more effective in treating Covid-19 patients | able to reduce nociception | successfully treated | reduced lung inflammation and inflammatory cytokines | 
2 | C#Cc1cccc(Nc2ncnc3cc(OCCOC)c(OCCOC)cc23)c1 [erlotinib] |  |  |  |  |  | induces hypomagnesemia, thereby triggering SP-mediated oxidative/inflammation stress and mild-to-moderate cardiac dysfunction
3 | C=C(C)[C@]12C[C@@H](C)[C@@]34O[C@](Cc5ccccc5)(O[C@@H]1[C@@H]3C=C(COC(=O)Cc1ccc(O)c(OC)c1)C[C@]1(O)C(=O)C(C)=C[C@@H]41)O2 [resiniferatoxin] |  |  | able to reduce nociception |  |  | 
